Measured values from ChEMBL document CHEMBL1275384, “Structure-activity relationships of benzimidazole-based selective inhibitors of the mitogen activated kinase-5 signaling pathway” (2010).

Assays:
HCT-15 = test: Cytotoxicity against human HCT15 cells at 10 uM assessed as cell growth relative to control; assay type: functional; settings: read-out: Activity
NCI/ADR-RES = test: Cytotoxicity against human NCI/ADR-RES cells at 10 uM assessed as cell growth relative to control; assay type: functional; settings: read-out: Activity
SK-MEL-28 = test: Cytotoxicity against human SK-MEL-28 cells at 10 uM assessed as cell growth relative to control; assay type: functional; settings: read-out: Activity
MDA-MB-231 = test: Cytotoxicity against human MDA-MB-231 cells at 10 uM assessed as cell growth relative to control; assay type: functional; settings: read-out: Activity
A498 = test: Cytotoxicity against human A498 cells at 10 uM assessed as cell growth relative to control; assay type: functional; settings: read-out: Activity
UACC-257 = test: Cytotoxicity against human UACC257 cells at 10 uM assessed as cell growth relative to control; assay type: functional; settings: read-out: Activity
786-0 = test: Cytotoxicity against human 786-0 cells at 10 uM assessed as cell growth relative to control; assay type: functional; settings: read-out: Activity
SW-620 = test: Cytotoxicity against human SW620 cells at 10 uM assessed as cell growth relative to control; assay type: functional; settings: read-out: Activity
CCRF-CEM = test: Cytotoxicity against human CCRF-CEM cells at 10 uM assessed as cell growth relative to control; assay type: functional; settings: read-out: Activity
KM12 = test: Cytotoxicity against human KM12 cells at 10 uM assessed as cell growth relative to control; assay type: functional; settings: read-out: Activity
SF-539 = test: Cytotoxicity against human SF539 cells at 10 uM assessed as cell growth relative to control; assay type: functional; settings: read-out: Activity
NCI-H23 = test: Cytotoxicity against human NCI-H23 cells at 10 uM assessed as cell growth relative to control; assay type: functional; settings: read-out: Activity
HCC 2998 = test: Cytotoxicity against human HCC2998 cells at 10 uM assessed as cell growth relative to control; assay type: functional; settings: read-out: Activity
EKVX = test: Cytotoxicity against human EKVX cells at 10 uM assessed as cell growth relative to control; assay type: functional; settings: read-out: Activity
LOX IMVI = test: Cytotoxicity against human LOXIMVI cells at 10 uM assessed as cell growth relative to control; assay type: functional; settings: read-out: Activity
OVCAR-3 = test: Cytotoxicity against human OVCAR-3 cells at 10 uM assessed as cell growth relative to control; assay type: functional; settings: read-out: Activity
SR = test: Cytotoxicity against human SR cells at 10 uM assessed as cell growth relative to control; assay type: functional; settings: read-out: Activity
[1] = Cytotoxicity against human Hs 578T cells at 10 uM assessed as cell growth relative to control; assay type: functional; settings: read-out: Activity
CAKI-1 = test: Cytotoxicity against human Caki1 cells at 10 uM assessed as cell growth relative to control; assay type: functional; settings: read-out: Activity
SF-268 = test: Cytotoxicity against human SF268 cells at 10 uM assessed as cell growth relative to control; assay type: functional; settings: read-out: Activity
MDA-MB-468 = test: Cytotoxicity against human MDA-MB-468 cells at 10 uM assessed as cell growth relative to control; assay type: functional; settings: read-out: Activity
HCT-116 = test: Cytotoxicity against human HCT116 cells at 10 uM assessed as cell growth relative to control; assay type: functional; settings: read-out: Activity
NCI-H226 = test: Cytotoxicity against human NCI-H226 cells at 10 uM assessed as cell growth relative to control; assay type: functional; settings: read-out: Activity
ACHN = test: Cytotoxicity against human ACHN cells at 10 uM assessed as cell growth relative to control; assay type: functional; settings: read-out: Activity
HT-29 = test: Cytotoxicity against human HT-29 cells at 10 uM assessed as cell growth relative to control; assay type: functional; settings: read-out: Activity
OVCAR-4 = test: Cytotoxicity against human OVCAR4 cells at 10 uM assessed as cell growth relative to control; assay type: functional; settings: read-out: Activity
OVCAR-8 = test: Cytotoxicity against human OVCAR8 cells at 10 uM assessed as cell growth relative to control; assay type: functional; settings: read-out: Activity
UO-31 = test: Cytotoxicity against human UO31 cells at 10 uM assessed as cell growth relative to control; assay type: functional; settings: read-out: Activity
RXF 393 = test: Cytotoxicity against human RXF393 cells at 10 uM assessed as cell growth relative to control; assay type: functional; settings: read-out: Activity
[2] = molecular target: T1, Dual specificity mitogen-activated protein kinase kinase 5 (Homo sapiens) (UniProt Q13163); settings: HEK293, at 10 µM;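 also: MEK5 activity stimulated by EGF, read out as phospho-ERK5 on Western blot after 1 h treatment, expressed relative to control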
T1 sequence (whole entry): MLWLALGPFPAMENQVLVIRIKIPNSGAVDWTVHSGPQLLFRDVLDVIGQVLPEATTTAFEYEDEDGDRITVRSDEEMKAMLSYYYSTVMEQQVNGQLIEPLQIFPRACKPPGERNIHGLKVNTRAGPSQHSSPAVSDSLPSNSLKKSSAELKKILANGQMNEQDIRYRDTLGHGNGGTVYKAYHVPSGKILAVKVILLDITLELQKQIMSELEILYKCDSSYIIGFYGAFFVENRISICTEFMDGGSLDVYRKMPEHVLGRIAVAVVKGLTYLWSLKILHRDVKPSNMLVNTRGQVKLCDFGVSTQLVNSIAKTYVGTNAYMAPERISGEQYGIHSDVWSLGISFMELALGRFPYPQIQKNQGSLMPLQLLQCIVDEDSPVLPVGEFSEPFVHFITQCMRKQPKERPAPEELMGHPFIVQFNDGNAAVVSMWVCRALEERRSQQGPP
Description: Inhibition of EGF-induced MEK5 activity in HEK293 cells assessed as phosphorylated ERK5 level at 10 uM after 1 hr by Western blotting relative to control

HL-60(TB) = test: Cytotoxicity against human HL-60(TB) cells at 10 uM assessed as cell growth relative to control; assay type: functional; settings: read-out: Activity
U-251 = test: Cytotoxicity against human U251 cells at 10 uM assessed as cell growth relative to control; assay type: functional; settings: read-out: Activity
NCI-H522 = test: Cytotoxicity against human NCI-H522 cells at 10 uM assessed as cell growth relative to control; assay type: functional; settings: read-out: Activity
SNB-75 = test: Cytotoxicity against human SNB75 cells at 10 uM assessed as cell growth relative to control; assay type: functional; settings: read-out: Activity
NCI-H322M = test: Cytotoxicity against human NCI-H322M cells at 10 uM assessed as cell growth relative to control; assay type: functional; settings: read-out: Activity
TK-10 = test: Cytotoxicity against human TK10 cells at 10 uM assessed as cell growth relative to control; assay type: functional; settings: read-out: Activity
BT-549 = test: Cytotoxicity against human BT549 cells at 10 uM assessed as cell growth relative to control; assay type: functional; settings: read-out: Activity
SN12C = test: Cytotoxicity against human SN12C cells at 10 uM assessed as cell growth relative to control; assay type: functional; settings: read-out: Activity
T47D = test: Cytotoxicity against human T47D cells at 10 uM assessed as cell growth relative to control; assay type: functional; settings: read-out: Activity
MOLT-4 = test: Cytotoxicity against human MOLT4 cells at 10 uM assessed as cell growth relative to control; assay type: functional; settings: read-out: Activity
IGROV-1 = test: Cytotoxicity against human IGROV1 cells at 10 uM assessed as cell growth relative to control; assay type: functional; settings: read-out: Activity
COLO 205 = test: Cytotoxicity against human COLO205 cells at 10 uM assessed as cell growth relative to control; assay type: functional; settings: read-out: Activity
MCF7 = test: Cytotoxicity against human MCF7 cells at 10 uM assessed as cell growth relative to control; assay type: functional; settings: read-out: Activity
UACC-62 = test: Cytotoxicity against human UACC62 cells at 10 uM assessed as cell growth relative to control; assay type: functional; settings: read-out: Activity
SK-MEL-5 = test: Cytotoxicity against human SK-MEL-5 cells at 10 uM assessed as cell growth relative to control; assay type: functional; settings: read-out: Activity

COc1cc(NCc2ccccc2)c2ncn(C(C)C)c2c1
growth at 10 µM (HCT-15): 97.9%
growth at 10 µM (NCI/ADR-RES): 96.7%
growth at 10 µM (SK-MEL-28): 125%
growth at 10 µM (MDA-MB-231): 111%
growth at 10 µM (A498): 106%
growth at 10 µM (UACC-257): 106%
growth at 10 µM (786-0): 96.5%
growth at 10 µM (SW-620): 146%
growth at 10 µM (CCRF-CEM): 93.9%
growth at 10 µM (KM12): 104%
growth at 10 µM (SF-539): 96.2%
growth at 10 µM (NCI-H23): 91.1%
growth at 10 µM (HCC 2998): 105%
growth at 10 µM (EKVX): 93.9%
growth at 10 µM (LOX IMVI): 115%
growth at 10 µM (OVCAR-3): 104%
growth at 10 µM (SR): 51.7%
growth at 10 µM [1]: 174%
growth at 10 µM (CAKI-1): 97.2%
growth at 10 µM (SF-268): 125%
growth at 10 µM (MDA-MB-468): 36.5%
growth at 10 µM (HCT-116): 103%
growth at 10 µM (NCI-H226): 97.1%
growth at 10 µM (ACHN): 106%
growth at 10 µM (HT-29): 109%
growth at 10 µM (OVCAR-4): 50.6%
growth at 10 µM (OVCAR-8): 98.7%
growth at 10 µM (UO-31): 83.2%
growth at 10 µM (RXF 393): 91.2%
inhibition [2]: 85%
growth at 10 µM (HL-60(TB)): 50.3%
growth at 10 µM (U-251): 103%
growth at 10 µM (NCI-H522): 87%
growth at 10 µM (SNB-75): 92.3%
growth at 10 µM (NCI-H322M): 115%
growth at 10 µM (TK-10): 136%
growth at 10 µM (BT-549): 55.6%
growth at 10 µM (SN12C): 104%
growth at 10 µM (T47D): 80.1%
growth at 10 µM (MOLT-4): 78.7%
growth at 10 µM (IGROV-1): 92.4%
growth at 10 µM (COLO 205): 118%
growth at 10 µM (MCF7): 5.8%
growth at 10 µM (UACC-62): 97.3%
growth at 10 µM (SK-MEL-5): 122%

COCCCOc1cc(NCc2ccccc2)c2ncn(C(C)C)c2c1
growth at 10 µM (HCT-15): 110%
growth at 10 µM (NCI/ADR-RES): 85.3%
growth at 10 µM (SK-MEL-28): 115%
growth at 10 µM (MDA-MB-231): 102%
growth at 10 µM (A498): 83.5%
growth at 10 µM (UACC-257): 101%
growth at 10 µM (786-0): 95.7%
growth at 10 µM (SW-620): 101%
growth at 10 µM (CCRF-CEM): 86.8%
growth at 10 µM (KM12): 100%
growth at 10 µM (SF-539): 93.5%
growth at 10 µM (NCI-H23): 109%
growth at 10 µM (HCC 2998): 91.7%
growth at 10 µM (EKVX): 95.4%
growth at 10 µM (LOX IMVI): 94.5%
growth at 10 µM (OVCAR-3): 84.9%
growth at 10 µM (SR): 103%
growth at 10 µM [1]: 84.4%
growth at 10 µM (CAKI-1): 81.3%
growth at 10 µM (SF-268): 96.7%
growth at 10 µM (MDA-MB-468): 104%
growth at 10 µM (HCT-116): 100%
growth at 10 µM (NCI-H226): 91.6%
growth at 10 µM (ACHN): 95.3%
growth at 10 µM (HT-29): 109%
growth at 10 µM (OVCAR-4): 87.8%
growth at 10 µM (OVCAR-8): 99.3%
growth at 10 µM (UO-31): 79.9%
growth at 10 µM (RXF 393): 94.3%
inhibition [2]: 51%
growth at 10 µM (HL-60(TB)): 100%
growth at 10 µM (U-251): 95.6%
growth at 10 µM (NCI-H522): 127%
growth at 10 µM (SNB-75): 92%
growth at 10 µM (NCI-H322M): 104%
growth at 10 µM (TK-10): 109%
growth at 10 µM (BT-549): 90.1%
growth at 10 µM (SN12C): 90.8%
growth at 10 µM (T47D): 91.9%
growth at 10 µM (MOLT-4): 88.2%
growth at 10 µM (IGROV-1): 90.1%
growth at 10 µM (COLO 205): 100%
growth at 10 µM (MCF7): 93.2%
growth at 10 µM (UACC-62): 91.9%
growth at 10 µM (SK-MEL-5): 95.8%
